# Results as given in PMC9939733 (The Journal of Biological Chemistry, 2023).
# Substitutions are numbered along the chain they refer to.
# How the values were obtained:
# Type in all cases: biochemical
# [1] = target: T1, R132H IDH1 (Homo sapiens, UniProt O75874, R132H); test: Electrochemical assay (FNR+R132H IDH1)@ITO/PGE electrode; design: made in house; host or cells: Escherichia coli BL21(DE3) pLyS (IDH1 R132H); settings: simulated from experimental Km and vmax, if 500 μM substrate consumed at the electrode-solution interface per scan
# Description: Assays were carried out in an anaerobic glovebox (Glove Box Technology) under a nitrogen atmosphere. A potentiostat (Autolab PGSTAT 10) running on Nova software was used for all experiments. As previously described, the electrochemical apparatus included an Autolab electrode rotator, a two-chamber custom-made glass electrochemical cell, and custom-made rotating pyrolytic graphite edge (PGE) electrodes ([55]). Platinum wire was used as the counter electrode; it was placed in the working electrode chamber. Electrode potentials (E) were measured against a saturated calomel electrode and converted to the standard hydrogen electrode using a temperature-dependent equation (at 25 °C: ESHE = ESCE + 0.2412 V) ([55]). Nanoporous indium tin oxide (ITO) electrodes were made by electrophoretically depositing ITO nanoparticles (<50 nm, Sigma-Aldrich) onto PGE electrodes (ITO/PGE) as previously described ([55]). […] In all experiments, 0.85 nmol (homodimer basis) of IDH1 R132H was used; the amount of coloaded FNR was adjusted to achieve the desired enzyme loading ratio. Electrodes loaded with enzyme were thoroughly rinsed using buffer solution before each experiment to remove excess enzyme. […]
# and controlled electrochemically under steady-state conditions (1).
# Conditions: 25 °C, mixed buffer (20 […]
# mM each MES, TAPS, CHES, pH 8.0), 10 mM MgCl2, 10 µM NADPH, 4 mL cell volume, (FNR+R132H IDH1)@ITO/PGE electrode, electrode area 0.06 cm2, rotated at 1000 rpm, E = –0.513 V vs SHE, enzyme loading ratios (molar): FNR/R132H IDH1; 2.5 (dimer basis).
# (1 picture or pasted object on this page, not shown here)
# Target sequence in this assay (O75874 2-414 R132H): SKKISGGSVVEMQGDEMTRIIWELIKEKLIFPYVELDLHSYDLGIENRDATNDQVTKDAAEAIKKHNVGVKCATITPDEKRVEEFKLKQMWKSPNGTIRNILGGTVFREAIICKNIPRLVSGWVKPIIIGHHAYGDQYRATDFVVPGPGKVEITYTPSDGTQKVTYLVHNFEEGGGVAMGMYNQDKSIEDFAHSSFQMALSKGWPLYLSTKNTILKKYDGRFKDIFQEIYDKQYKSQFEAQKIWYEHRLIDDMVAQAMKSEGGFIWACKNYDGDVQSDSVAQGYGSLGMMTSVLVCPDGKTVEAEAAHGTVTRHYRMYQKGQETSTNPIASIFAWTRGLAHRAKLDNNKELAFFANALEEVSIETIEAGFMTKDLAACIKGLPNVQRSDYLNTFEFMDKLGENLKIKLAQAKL
# [2] = target: T1, R132H IDH1; test: Steady-state kinetics, absorbance assay; design: made in house; host or cells: Escherichia coli BL21(DE3) pLyS; settings: predicted, Fig. 3H simulation
# Description: Compounds were dispensed using a CyBio SDW-CW CyBi-Well Simultaneous Pipettor and assay started using a ThermoFisher Multidrop Combi reagent dispenser.
# Reactions were performed as technical duplicates, and all assays were carried out in two independent duplicates.
# Target sequence in this assay (O75874 whole entry R132H): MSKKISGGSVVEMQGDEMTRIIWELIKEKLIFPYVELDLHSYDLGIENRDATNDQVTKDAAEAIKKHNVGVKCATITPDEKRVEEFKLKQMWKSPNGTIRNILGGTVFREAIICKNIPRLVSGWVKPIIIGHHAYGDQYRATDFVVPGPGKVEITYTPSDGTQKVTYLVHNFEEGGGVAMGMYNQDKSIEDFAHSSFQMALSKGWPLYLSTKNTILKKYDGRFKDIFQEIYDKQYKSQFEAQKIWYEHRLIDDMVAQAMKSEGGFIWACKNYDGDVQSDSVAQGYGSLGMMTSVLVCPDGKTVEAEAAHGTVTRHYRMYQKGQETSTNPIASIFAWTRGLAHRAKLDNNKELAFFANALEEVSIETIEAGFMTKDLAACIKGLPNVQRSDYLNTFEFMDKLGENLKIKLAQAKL
# [3] = target: T2, R140Q IDH2 (Homo sapiens, UniProt P48735, R140Q); test: Absorbance assay, IC50 determination
# T2 construct: made in house; host or cells: Sf21 insect cells (cell pellets prepared at Evotec)
# T2 sequence (P48735 40-452 R140Q): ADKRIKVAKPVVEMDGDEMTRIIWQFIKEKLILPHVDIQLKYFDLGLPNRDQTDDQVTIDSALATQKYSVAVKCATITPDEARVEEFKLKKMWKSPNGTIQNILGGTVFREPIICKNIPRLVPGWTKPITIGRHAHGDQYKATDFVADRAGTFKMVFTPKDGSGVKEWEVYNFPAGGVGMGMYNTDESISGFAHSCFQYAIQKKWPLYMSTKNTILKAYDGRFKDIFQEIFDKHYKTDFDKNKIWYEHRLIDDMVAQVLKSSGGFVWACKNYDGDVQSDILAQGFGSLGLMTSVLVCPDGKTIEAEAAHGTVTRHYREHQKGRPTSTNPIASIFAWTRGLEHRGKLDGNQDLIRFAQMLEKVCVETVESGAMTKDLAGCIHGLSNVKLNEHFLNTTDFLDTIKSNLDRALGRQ
# Description: (§1) The reactivity of WT IDH1/2 and oncogenic IDH1/2 variants was assayed at ambient temperature by continuously monitoring the concentration-dependent change in absorbance ([…]) of NADPH using a PheraStar FS or a CLARIOstar Plus plate reader (BMG Labtech). Enzyme reactions (60 μL total reaction volume) were performed in clear 384-well UV-STAR plates (Greiner Bio-one, #781801). Compounds were dispensed using a CyBio SDW-CW CyBi-Well Simultaneous Pipettor and assay started using a ThermoFisher Multidrop Combi reagent dispenser.
# (§2) Final assay concentrations were as follows: 30 nM IDH1/2 variant and 50 μM NADPH. […] Reactions were performed as technical quadruplicates, and all assays were carried out in two independent duplicates. GraphPad Prism (version 5.04) was used for data analysis and to determine the IC50 values.
# [4] = target: T3, R172K IDH2 (Homo sapiens, UniProt P48735, R172K); test: Absorbance assay, IC50 determination
# T3 construct: made in house; host or cells: Sf21 insect cells (cell pellets prepared at Evotec)
# T3 sequence (P48735 40-452 R172K): T2 sequence (P48735 40-452 R140Q) with Q101R, R133K
# Description: as §1, §2
# [5] = target: T2, R140Q IDH2; test: Absorbance assay (NADPH consumption), substrate turnover in the absence of 2OG; settings: no 2OG; 6.0 mM test compound, 0.03 μM R140Q IDH2, 50 μM NADPH; 2OG = 100
# Summary of the method: (§3)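 Tech. quadruplicates; cpds pipetted simultaneously, reaction initiated by dispenser addition.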
# [6] = target: T3, R172K IDH2; test: as above; settings: no 2OG; 1.0 mM test compound, 0.03 μM R172K IDH2, 50 μM NADPH; 2OG = 100
# Summary of the method: as §3
# [7] = target: T2, R140Q IDH2; test: Absorbance assay, variant activity in the presence of equimolar 2OG (inhibition screen)
# Summary of the method: as §3
# [8] = target: T3, R172K IDH2; test: as above
# Summary of the method: as §3
# [9] = target: T4, WT IDH1 (Homo sapiens, UniProt O75874); test: Absorbance assay, WT activity in the presence of equimolar DL-isocitrate (inhibition); settings: […] isocitrate and […] test compound, 75 μM NADP+, 2.0 nM WT IDH1
# T4 construct: made in house; host or cells: Escherichia coli BL21(DE3) pLyS
# T4 sequence (O75874 whole entry): as the sequence (O75874 whole entry R132H) above, with H132R counted along it
# Summary of the method: as §3
# [10] = target: T5, WT IDH2 (Homo sapiens, UniProt P48735); test: as above; settings: […] isocitrate and […] test compound, 75 μM NADP+, 2.0 nM WT IDH2
# T5 construct: made in house; host or cells: Sf21 insect cells (cell pellets prepared at Evotec)
# T5 sequence (P48735 40-452): T2 sequence (P48735 40-452 R140Q) with Q101R
# Summary of the method: as §3
# [11] = target: T1, R132H IDH1; test: Absorbance assay, variant activity in the presence of equimolar 2OG (inhibition screen); design: made in house; host or cells: Escherichia coli BL21(DE3) pLyS; settings: […] 2OG and […] test compound, 0.03 μM R132H IDH1, 50 μM NADPH
# Summary of the method: as §3
# Target sequence in this assay (O75874 whole entry R132H): as the sequence (O75874 whole entry R132H) above
# [12] = target: T1, R132H IDH1; test: Absorbance assay, IC50 determination; design: made in house; host or cells: Escherichia coli BL21(DE3) pLyS
# Description: as §1, §2
# Target sequence in this assay (O75874 whole entry R132H): as above
# [13] = target: T1, R132H IDH1; test: Absorbance assay (NADPH consumption), substrate turnover in the absence of 2OG; design: made in house; host or cells: Escherichia coli BL21(DE3) pLyS; settings: no 2OG; […] test compound, 0.03 μM R132H IDH1, 50 μM NADPH; 2OG = 100
# Summary of the method: as §3
# Target sequence in this assay (O75874 whole entry R132H): as above
smiles,measurement,setting,value
"CC(CC(=O)C(=O)O)C(=O)O (single isomer, unassigned) [enantiopure 12]",predicted change in catalytic rate,[1],−46%
same,Vmax (predicted for single enantiomer),[2],9.6 µM/min
"O=C(O)CNC(=O)C(=O)O [NOG, N-oxalylglycine, reference compound]",IC50,[3],~621 µM
same,IC50,[4],~161 µM
same,activity [%] (%-substrate conversion after 20 min incubation),[5],< 10%
same,activity [%] (%-substrate conversion after 20 min incubation),[6],< 10%
same,activity [%] (%-substrate conversion after 20 min incubation),"[7]; 6.0 mM 2OG and 6.0 mM test compound, 0.03 μM R140Q IDH2, 50 μM NADPH",12 ± 7%
same,inhibition,[7]; equimolar 2OG (6.0 mM),≥ 90%
same,activity [%] (%-substrate conversion after 20 min incubation),"[8]; 1.0 mM 2OG and 1.0 mM test compound, 0.03 μM R172K IDH2, 50 μM NADPH",13 ± 4%
same,inhibition,[8]; equimolar 2OG (1.0 mM),≥ 90%
same,activity [%] (%-substrate conversion after 20 min incubation),[9],93 ± 2%
same,activity [%] (%-substrate conversion after 20 min incubation),[10],93 ± 1%
same,activity [%] (%-substrate conversion after 20 min incubation),[11],< 10%
same,IC50,[12],~188 µM
same,activity [%] (%-substrate conversion after 20 min incubation),[13],< 10%
